From PubChem BioAssay (NCI)
Several values for one entry are separate records, joined by “and”; a condition that tells them apart may be missing. Equal values may be shown once.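 Dose response: 5 concentrations. Exposure: 48 h. Format: 96-well plates. Endpoint: linear interpolation; highest concentration if not reached. The concentration for 50% growth inhibition is given as GI50. TGI marks complete inhibition of growth.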

Tests used:
Assay in all cases: inhibition of tumour cell growth, NCI panel, 48 h
[1] = system: UACC-257 melanoma
[2] = system: COLO 205 colon
[3] = system: IGROV1 ovarian
[4] = system: EKVX NSCLC
[5] = system: MALME-3M melanoma
[6] = system: UO-31 renal
[7] = system: HCC-2998 colon
[8] = system: K-562 leukemia
[9] = system: SF-295 CNS
[10] = system: NCI-H522 lung

SMILES	GI50 [1] [µM]	TGI [1] [µM]	GI50 [2]	TGI [2]	GI50 [3]	TGI [3]	GI50 [4]	TGI [4]	GI50 [5]	TGI [5]	GI50 [6]	TGI [6]	GI50 [7]	TGI [7]	GI50 [8]	TGI [8]	GI50 [9]	TGI [9]	GI50 [10]	TGI [10]
CCOc1ccc(/C=N/Nc2cc(C)nc3ccc(Cl)cc23)cc1	1.81	3.32	1.91 µM	3.47 µM	1.93 µM	3.64 µM	2.18 µM	5.25 µM	2.02 µM	3.6 µM	1.63 µM	2.98 µM	2.19 µM	3.7 µM	1.36 µM	2.98 µM	1.76 µM	3.24 µM	1.73 µM	3.29 µM
N#CC(NC12CC3CC(CC(C3)C1)C2)c1ccccc1 (stereo not given)	–	> 100	–	> 100 µM	–	> 100 µM	–	> 100 µM	–	> 100 µM	–	> 100 µM	–	> 100 µM	–	> 100 µM	–	> 100 µM	–	> 100 µM
COC(=O)C1C2CC3C(OC(=O)C31)C2I (stereo not given)	–	> 100	–	> 100 µM	–	> 100 µM	–	> 100 µM	–	> 100 µM	–	> 100 µM	–	> 100 µM	–	> 100 µM	–	> 100 µM	–	> 100 µM
S=c1cn[nH]c2ccc(Br)cc12	–	> 100	–	> 100 µM	–	> 100 µM	–	75.3 µM	–	79 µM	–	> 100 µM	–	> 100 µM	–	> 100 µM	–	> 100 µM	–	91.6 µM
O=C(/C=C/c1ccccc1Cl)c1ccc(O)cc1	9.79	22.5	12.8 µM	34.8 µM	2.25 µM	5.25 µM	10 µM	25.8 µM	16.3 µM	31.1 µM	4.85 µM	14 µM	12.7 µM	26.7 µM	3.12 µM	> 100 µM	8.97 µM	23.7 µM	9.33 µM	23.9 µM
COc1ccccc1/C=C1\CCC(CN(C)C)C1=O (stereo not given)	–	25	–	8.38 µM	–	32.7 µM	–	38.9 µM	–	16.2 µM	–	18 µM	–	14.2 µM	–	11.3 µM	–	29.7 µM	–	3.56 µM
CN(C)c1cc2c(cc1Sc1nc3c(N)nccc3n1CCNCC(C)(C)C)OCO2	0.473	11.9	0.37 µM	11.6 µM	0.56 µM	21.6 µM	1.34 µM	35.2 µM	0.428 µM	4.91 µM	0.64 µM	19 µM	0.805 µM	6.03 µM	0.319 µM	11 µM	0.444 µM	13.6 µM	0.453 µM	14.3 µM
N#Cc1cc(-c2ccccc2)[nH]c1-c1nccc2ccccc12	7.81	60.1	11.7 µM	33.2 µM	23.3 µM	> 100 µM	5.86 µM	> 100 µM	13 µM	84.5 µM	6.81 µM	> 100 µM	18.9 µM	> 100 µM	6.04 µM	> 100 µM	7.07 µM	> 100 µM	12.4 µM	98 µM
O=S1Cc2ccccc2CS1 (stereo not given)	–	32	–	28.8 µM	–	> 100 µM	–	44.9 µM	–	26.4 µM	–	56.4 µM	–	93.2 µM	–	49.9 µM	–	> 100 µM	–	19.7 µM
O=C(O[C@H]1CN[C@H](C#Cc2cc3ncnc(Nc4ccc(Cc5ccccc5)cc4)c3s2)C1)N1CCOCC1	5.46	> 22.1	5.37 µM	13.1 µM	2.45 µM	> 20.1 µM	1.94 µM	> 25 µM	4.71 µM	> 20.3 µM	3.36 µM	> 25 µM	4.2 µM	9.1 µM	8.44 µM	> 25 µM	> 13.6 µM	> 25 µM	0.482 µM	4.2 µM
Cc1ccc(NC(=O)C2C(=O)C(=O)N(c3ccc(C)cc3)C2=O)cc1 (stereo not given)	–	> 100	–	> 100 µM	–	> 100 µM	–	> 100 µM	–	> 100 µM	–	> 100 µM	–	> 100 µM	–	> 100 µM	–	> 100 µM	–	> 100 µM
O=S(=O)(c1ccc2c(c1)C(=NO)c1cc(S(=O)(=O)N3CCCCC3)ccc1-2)N1CCCCC1	0.17	0.32	> 1 µM and 0.194 µM	> 1 µM and 0.363 µM	0.131 µM and 0.0732 µM	0.494 µM and 0.213 µM	0.575 µM and 0.174 µM	> 1 µM and 0.323 µM	> 1 µM and 0.174 µM	> 1 µM and 0.312 µM	0.16 µM and 0.0467 µM	0.319 µM and 0.11 µM	0.298 µM and 0.134 µM	> 1 µM and 0.273 µM	0.211 µM and 0.216 µM	0.452 µM and 0.785 µM	0.188 µM and 0.141 µM	0.352 µM and 0.283 µM	> 1 µM and 0.107 µM	> 1 µM and 0.252 µM
CC(/C=C/C=C/C=C/C=C/C=C/C(O)=C1/C(=O)C(CCC(=O)O)N(C)C1=O)=C\C(C)C(OC1CC(O)C(O)C(C)O1)C(C)C (stereo not given)	–	6.66	–	4.48 µM	–	4.48 µM	–	12.4 µM	–	8.4 µM	–	13.5 µM	–	7.53 µM	–	15.6 µM	–	14.8 µM	–	7.35 µM
COC(=O)C1=C(C(=O)Nc2cccnc2)C2OC1(C(Cc1ccccc1)Oc1ccccc1)C1OC21 (stereo not given)	1.85	3.71	1.73 µM	3.29 µM	9.17 µM	25.8 µM	11.8 µM	27.2 µM	1.6 µM	3.31 µM	1.24 µM	2.49 µM	14.7 µM	30.3 µM	2.03 µM	6.68 µM	14.6 µM	28.6 µM	1.37 µM	2.95 µM
c1ccc2c(c1)nnn1c3cnccc3nc21	–	> 100	–	46.1 µM	–	> 100 µM	–	> 100 µM	–	> 100 µM	–	> 100 µM	–	> 100 µM	–	69.6 µM	–	> 100 µM	–	28.4 µM
COC(=O)C(=C\Sc1ccccc1)/C=C/C(=O)OC(C)(C)C	–	26.5	–	14 µM	–	27.5 µM	–	24.9 µM	–	30.7 µM	–	29.5 µM	–	21.6 µM	–	15.8 µM	–	34.3 µM	–	9.9 µM
